Article PMC2811323 (The Journal of neuroscience : the official journal of the …, 2009)

Key:
[1] = tested on: hM1 receptor; assay: Millipore GPCR Profiler functional screen, hM1; type: cell-based, human; details: two-addition protocol, BQCA 12.5 μM in first addition
[2] = tested on: hM4 receptor; assay: Millipore GPCR Profiler functional screen, hM4; type: cell-based, human; details: two-addition protocol, BQCA 12.5 μM in first addition
[3] = tested on: 15 other closely related GPCRs; assay: Millipore GPCR Profiler functional screen, GPCR panel; type: cell-based
[4] = tested on: rat mPFC layer V pyramidal cells; assay: Inward; type: cell-based
[5] = tested on: rat mPFC layer V pyramidal cells; assay: Spontaneous EPSCs in acute rat brain slices; type: cell-based
[6] = tested on: mPFC layer V neurons, wildtype (WT) mice; assay: Spontaneous EPSCs in slices from wild-type mice; type: cell-based, mouse
[7] = tested on: rat mPFC layer V pyramidal cells; type: cell-based; details: 10 μM; 1 μM TTX
[8] = 10 μM applied alone, −70 mV, 1 μM TTX

Question: What does the source list for `COc1ccc(Cn2cc(C(=O)[O-])c(=O)c3ccccc32)cc1.[Na+]` [BQCA, Sodium 1-(4-methoxybenzyl)-4-oxo-1,4-dihydroquinoline-3-carboxylate]?
Answer: Potentiation of the functional response [1]: robust potentiation; Activity in the functional screen [2]: no activity; Agonist activity when applied alone in the first addition ([3]; 12.5 μM, any receptor tested): no agonist activity; Effect (PAM or antagonist activity) at the other GPCRs tested ([3]; two-addition protocol, BQCA 12.5 μM in first addition): no effect

Question: How did the “Inward current (change in holding current)” value [4, 8] turn out when `C[N+](C)(C)CCOC(N)=O` [CCh, carbachol] was run?
Answer: 16.55 ± 1.93 pA

Question: And the “Inward current (change in holding current)” value ([4]; 100 μM applied alone, −70 mV, 1 μM TTX)?
Answer: 53.14 ± 5.92 pA

Question: And the sEPSC amplitude ([5]; 10 μM applied alone)?
Answer: 97.5 ± 4.4 % control

Question: And the sEPSC frequency ([5]; 10 μM applied alone)?
Answer: 90.1 ± 12.4 % control

Question: And the sEPSC amplitude ([5]; 30 μM applied alone)?
Answer: 108.3 ± 3.9 % control

Question: And the sEPSC frequency ([5]; 30 μM applied alone)?
Answer: 455.0 ± 101.9 % control

Question: What about the sEPSC amplitude ([5]; 100 μM applied alone) of the same molecule?
Answer: 154.3 ± 46.2 % control

Question: And the sEPSC frequency ([5]; 100 μM applied alone)?
Answer: 887.6 ± 268.5 % control

Question: And the sEPSC amplitude ([6]; 3 μM applied alone)?
Answer: 102.6 ± 11.7 % of control

Question: And the sEPSC frequency ([6]; 3 μM applied alone)?
Answer: 83.2 ± 47.1%

Question: What about the sEPSC amplitude ([6]; 30 μM applied alone) of the same molecule?
Answer: 143.1 ± 22.0%

Question: And the sEPSC frequency ([6]; 30 μM applied alone)?
Answer: 398.3 ± 56.2%

Question: And the mEPSC amplitude [7]?
Answer: 88.6 ± 3.8 % control

Question: `O=C(CCNS(=O)(=O)c1cccc2nsnc12)N1CCN(c2ccncc2)CC1` [VU0255035] was tested. Which “Inward current (change in holding current)” value [4, 8] did it give?
Answer: no effect

Question: And the “Inward current (change in holding current)” value ([4]; 100 μM CCh in the presence of 10 μM VU0255035)?
Answer: 11.78 ± 1.90 pA

Question: And the sEPSC amplitude ([5]; 5 μM antagonist with 30 μM CCh)?
Answer: 87.1 ± 3.5 % control

Question: And the sEPSC frequency ([5]; 5 μM antagonist with 30 μM CCh)?
Answer: 62.5 ± 10.1 % control

Question: And the sEPSC amplitude ([5]; 5 μM applied alone)?
Answer: 92.9 ± 3.4 % control

Question: What about the sEPSC frequency ([5]; 5 μM applied alone) of the same molecule?
Answer: 114.1 ± 25.8 % control
